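Each compound was tested at five concentrations against cells in 96-well plates for 48 hours. TGI: total growth inhibition.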
How the values were obtained:
Assay in all cases: NCI tumour cell line growth inhibition, 48 h
786-0 renal = system: 786-0 renal
A498 renal = system: A498 renal
A549 NSCLC = system: A549 NSCLC
ACHN renal = system: ACHN renal
CAKI-1 renal = system: CAKI-1 renal
CCRF-CEM leukemia = system: CCRF-CEM leukemia
COLO 205 colon = system: COLO 205 colon
DLD-1 colon = system: DLD-1 colon
DMS 114 small cell lung = system: DMS 114 small cell lung
DMS 273 small cell lung = system: DMS 273 small cell lung
EKVX NSCLC = system: EKVX NSCLC
HCC-2998 colon = system: HCC-2998 colon
HCT-116 colon = system: HCT-116 colon
HCT-15 colon = system: HCT-15 colon
HL-60(TB) leukemia = system: HL-60(TB) leukemia
HOP-18 NSCLC = system: HOP-18 NSCLC
HOP-62 NSCLC = system: HOP-62 NSCLC
HOP-92 NSCLC = system: HOP-92 NSCLC
HT29 colon = system: HT29 colon
IGROV1 ovarian = system: IGROV1 ovarian
K-562 leukemia = system: K-562 leukemia
KM12 colon = system: KM12 colon
KM20L2 colon = system: KM20L2 colon
LOX IMVI melanoma = system: LOX IMVI melanoma
LXFL 529 NSCLC = system: LXFL 529 NSCLC
M14 melanoma = system: M14 melanoma
M19-MEL melanoma = system: M19-MEL melanoma
MALME-3M melanoma = system: MALME-3M melanoma
MOLT-4 leukemia = system: MOLT-4 leukemia
NCI-H226 lung = system: NCI-H226 lung
NCI-H23 lung = system: NCI-H23 lung
NCI-H460 lung = system: NCI-H460 lung
NCI-H522 lung = system: NCI-H522 lung
OVCAR-3 ovarian = system: OVCAR-3 ovarian
OVCAR-4 ovarian = system: OVCAR-4 ovarian
OVCAR-5 ovarian = system: OVCAR-5 ovarian
OVCAR-8 ovarian = system: OVCAR-8 ovarian
RPMI-8226 leukemia = system: RPMI-8226 leukemia
RXF 393 renal = system: RXF 393 renal
RXF-631 renal = system: RXF-631 renal
SF-268 CNS = system: SF-268 CNS
SF-295 CNS = system: SF-295 CNS
SK-MEL-2 melanoma = system: SK-MEL-2 melanoma
SK-MEL-28 melanoma = system: SK-MEL-28 melanoma
SK-MEL-5 melanoma = system: SK-MEL-5 melanoma
SK-OV-3 ovarian = system: SK-OV-3 ovarian
SN12C renal = system: SN12C renal
SNB-19 CNS = system: SNB-19 CNS
SNB-75 CNS = system: SNB-75 CNS
SNB-78 CNS = system: SNB-78 CNS
SR leukemia = system: SR leukemia
SW-620 colon = system: SW-620 colon
TK-10 renal = system: TK-10 renal
U251 CNS = system: U251 CNS
UACC-257 melanoma = system: UACC-257 melanoma
UACC-62 melanoma = system: UACC-62 melanoma
UO-31 renal = system: UO-31 renal
SF-539 CNS = system: SF-539 CNS

CC(=O)OC1=C2CC3(C)OC(=O)CC(C)(C)C3=CC=C2C=C(C(C)C)C1=O (stereo unspecified)
TGI (786-0 renal): 388 nM
TGI (A498 renal): 2990 nM
TGI (A549 NSCLC): 3780 nM
TGI (ACHN renal): 1760 nM
TGI (CAKI-1 renal): 3180 nM
TGI (CCRF-CEM leukemia): 1020 nM
TGI (COLO 205 colon): 2050 nM
TGI (DLD-1 colon): 504 nM
TGI (DMS 114 small cell lung): 1560 nM
TGI (DMS 273 small cell lung): 2650 nM
TGI (EKVX NSCLC): 3570 nM
TGI (HCC-2998 colon): 2150 nM
TGI (HCT-116 colon): 1350 nM
TGI (HCT-15 colon): 392 nM
TGI (HL-60(TB) leukemia): 888 nM
TGI (HOP-18 NSCLC): 2390 nM
TGI (HOP-62 NSCLC): 19900 nM
TGI (HOP-92 NSCLC): 499 nM
TGI (HT29 colon): 2730 nM
TGI (IGROV1 ovarian): 2460 nM
TGI (K-562 leukemia): > 100000 nM
TGI (KM12 colon): 3070 nM
TGI (KM20L2 colon): 3380 nM
TGI (LOX IMVI melanoma): 425 nM
TGI (LXFL 529 NSCLC): 299 nM
TGI (M14 melanoma): 912 nM
TGI (M19-MEL melanoma): 1750 nM
TGI (MALME-3M melanoma): 1170 nM
TGI (MOLT-4 leukemia): 756 nM
TGI (NCI-H226 lung): 3260 nM
TGI (NCI-H23 lung): 1470 nM
TGI (NCI-H460 lung): 3310 nM
TGI (NCI-H522 lung): 410 nM
TGI (OVCAR-3 ovarian): 2410 nM
TGI (OVCAR-4 ovarian): 915 nM
TGI (OVCAR-5 ovarian): 2240 nM
TGI (OVCAR-8 ovarian): 779 nM
TGI (RPMI-8226 leukemia): 560 nM
TGI (RXF 393 renal): 347 nM
TGI (RXF-631 renal): 3080 nM
TGI (SF-268 CNS): 2400 nM
TGI (SF-295 CNS): 3140 nM
TGI (SK-MEL-2 melanoma): 1650 nM
TGI (SK-MEL-28 melanoma): 1310 nM
TGI (SK-MEL-5 melanoma): 2120 nM
TGI (SK-OV-3 ovarian): 3540 nM
TGI (SN12C renal): 2000 nM
TGI (SNB-19 CNS): 3280 nM
TGI (SNB-75 CNS): 1990 nM
TGI (SNB-78 CNS): 985 nM
TGI (SR leukemia): 1010 nM
TGI (SW-620 colon): 1140 nM
TGI (TK-10 renal): 2510 nM
TGI (U251 CNS): 2990 nM
TGI (UACC-257 melanoma): 1100 nM
TGI (UACC-62 melanoma): 725 nM
TGI (UO-31 renal): 3120 nM

Cc1cc2c(cc1C)[n+](=O)c(C(=O)C/C(=N/NC(=O)c1ccccc1O)C(=O)Nc1ccccc1C(C)C)c(C)n2[O-]
TGI (786-0 renal): > 100000 nM
TGI (A498 renal): > 100000 nM
TGI (A549 NSCLC): > 100000 nM
TGI (ACHN renal): > 100000 nM
TGI (CAKI-1 renal): > 100000 nM
TGI (CCRF-CEM leukemia): 94100 nM
TGI (COLO 205 colon): > 100000 nM
TGI (DLD-1 colon): > 100000 nM
TGI (DMS 114 small cell lung): > 100000 nM
TGI (DMS 273 small cell lung): > 100000 nM
TGI (EKVX NSCLC): > 100000 nM
TGI (HCC-2998 colon): > 100000 nM
TGI (HCT-116 colon): > 100000 nM
TGI (HCT-15 colon): > 100000 nM
TGI (HL-60(TB) leukemia): 37900 nM
TGI (HOP-18 NSCLC): > 100000 nM
TGI (HOP-62 NSCLC): > 100000 nM
TGI (HT29 colon): > 100000 nM
TGI (IGROV1 ovarian): > 100000 nM
TGI (K-562 leukemia): > 100000 nM
TGI (KM12 colon): > 100000 nM
TGI (KM20L2 colon): > 100000 nM
TGI (LOX IMVI melanoma): > 100000 nM
TGI (LXFL 529 NSCLC): > 100000 nM
TGI (M14 melanoma): > 100000 nM
TGI (M19-MEL melanoma): > 100000 nM
TGI (MALME-3M melanoma): > 100000 nM
TGI (MOLT-4 leukemia): 77100 nM
TGI (NCI-H226 lung): > 100000 nM
TGI (NCI-H23 lung): > 100000 nM
TGI (NCI-H460 lung): > 100000 nM
TGI (NCI-H522 lung): > 100000 nM
TGI (OVCAR-3 ovarian): > 100000 nM
TGI (OVCAR-4 ovarian): > 100000 nM
TGI (OVCAR-5 ovarian): > 100000 nM
TGI (OVCAR-8 ovarian): > 100000 nM
TGI (RXF 393 renal): > 100000 nM
TGI (RXF-631 renal): > 100000 nM
TGI (SF-268 CNS): > 100000 nM
TGI (SF-295 CNS): > 100000 nM
TGI (SF-539 CNS): > 100000 nM
TGI (SK-MEL-2 melanoma): > 100000 nM
TGI (SK-MEL-28 melanoma): > 100000 nM
TGI (SK-MEL-5 melanoma): > 100000 nM
TGI (SK-OV-3 ovarian): > 100000 nM
TGI (SN12C renal): > 100000 nM
TGI (SNB-19 CNS): > 100000 nM
TGI (SNB-75 CNS): > 100000 nM
TGI (SNB-78 CNS): > 100000 nM
TGI (SW-620 colon): > 100000 nM
TGI (TK-10 renal): > 100000 nM
TGI (U251 CNS): > 100000 nM
TGI (UACC-257 melanoma): > 100000 nM
TGI (UACC-62 melanoma): > 100000 nM

Reference: PubChem BioAssay (NCI)
